Data reported in US8278100B2, “Lasonolide compounds as reagents for inducing premature chromosome condensation and methods for treating disorders” (The United States of America, as Represented by the …, priority 2008, dated 2012).

Assays:
tumor cells = assay: Premature chromosome condensation (PCC) induction, cells not specified; type: cell-based; details: co-treatment with Lasonolide A
Experimental: (§1) Burkitt's Lymphoma CA46 cells (500,000) (FIG. 1B) or breast cancer MDA-MB-231 cells (500,000) (FIG. 1A) were treated by 100 nM Lasonolide A (stock solution 100 μM in DMSO) for 1 h. Lymphocytes were treated with 200 nM Lasonolide A for 1 h. Cells were harvested with centrifuging on 2,000 rpm for 5 min at 4° C. Pellets were washed once by PBS and re-suspended in 1 mL PBS. 200 μL cells mixture were added to the chamber for cytospining. Cells were cytospun on 800 rpm for 10 min; slides were fixed in fresh-made 4% paraformaldehyde fixation for 20 min at room temperature, then moved to 70% ethanol for 20 min. Slides were stained with Propidium Iodide (“PI”) (20 μg/mL) and RNase A (100 μg/mL) for 15 min. Slides were washed with PBS for three times and mounted with Vectashield anti-fade mounting media (Vector Laboratories, Inc., Burlingame, Calif.). Images were taken using a Nikon Eclipse TE-300 confocal microscope.

human lymphocytes = assay: PCC induction and PI staining; type: cell-based; details: 1 μM OA, without additional reagents
[1] = test system: Burkitt's Lymphoma CA46 cells; assay: PCC induction and PI staining; type: cell-based, human; details: 1 μM OA, 1 h
Experimental: as §1

SMILES | effect of the added inhibitor on PCC induction by Lasonolide A (tumor cells) | lymphocytes going to PCC (human lymphocytes) | cells with premature chromosome condensation (PCC) [1]
CN1CC[C@H](c2c(O)cc(O)c3c(=O)cc(-c4ccccc4Cl)oc23)[C@H](O)C1 [Flavorpiridol] | could not influence the PCC induction |  | 
C[C@@H](CN1CC(=O)NC(=O)C1)N1CC(=O)NC(=O)C1 [ICRF187] | changed the pattern of PCC |  | 
C=C1[C@@H](O)[C@@H]2O[C@]3(CC[C@H](/C=C/[C@@H](C)[C@@H]4CC(C)=C[C@@]5(O[C@H](C[C@@](C)(O)C(=O)O)CC[C@H]5O)O4)O3)CC[C@H]2O[C@@H]1[C@@H](O)C[C@H](C)[C@H]1O[C@@]2(CCCCO2)CC[C@H]1C [OA, Okadaic Acid, reference compound] |  | 1.7% | 31%
CC[C@H](CO)Nc1nc(NCc2ccccc2)c2ncn(C(C)C)c2n1 [Roscovitine] | could not influence the PCC induction |  | 
C[C@@]1(CO)[C@H](O)CC[C@@]2(C)[C@H]1CC[C@H]1C[C@@H]3C[C@@]12CC[C@]3(O)CO [aphidicolin] | had no effect on PCC induction |  | 
